This note sets out measurements from patent publication US7378234B2, “Method for isolating hepatitis C virus peptides” (Intercell AG, priority 2002, dated 2008).

Entries after “also recorded” stand apart in the source; their conditions may differ.

Assay [1] relates to HLA-A*0201 transgenic mice. Description: Immunization of HLA-A*0201 transgenic mice (peptide + CpI), splenocyte IFN-gamma ELISpot. It is filed as in vivo, mouse. Particulars: for immunogenicity in HLA-A*0201 transgenic mice (in words): Example II, IFN-gamma ELISpot of splenocytes; for Immunogenicity, peptide-specific IFN-gamma-producing cells, A*0201: HLA-A*0201 transgenic mice, splenocytes. The protocol: (§1) Immunogenicity of synthetic HCV-derived peptides was tested in HLA-DRB1*0401- and HLA-A*0201-transgenic mice as follows: Groups of 3 mice (female, 8 weeks of age) were injected subcutaneously into the flank (in total 100 μg of peptide +30 μg oligodinucleotide CpI (Purimex, Göttingen, Germany) per mouse).
(§2) Mouse splenocyte ELIspot assay for single cell IFN-gamma release ELISpot plates (MAHA S4510, Millipore, Germany) were rinsed with PBS (200 μl/well), coated with anti-mouse IFN-gamma mAb (clone R46A2; 100 μl/well of 5 μg/ml in 0.1 M NaHCO3, pH 9.2-9.5) and incubated overnight at 4° C. Plates were washed four times with PBS/0.1% Tween 20 and incubated with PBS/1% BSA (200 μl/well) at room temperature for 2 h to block nonspecific binding. Spleen cells from vaccinated mice were prepared and plated at 1×10^6-3×10^5 cells/well and incubated overnight at 37° C./5% CO2 either in the presence of the immunizing antigen (peptide), control peptides or with medium alone. Subsequently, plates were washed four times and incubated with biotinylated anti-mouse IFN-gamma mAb (clone AN18.17.24, 100 μl/well of 2 μg/ml in PBS/1% BSA) for 2 h at 37° C. After washing, streptavidin-peroxidase (Roche Diagnostics, Vienna, Austria) was added ( 1/5000 in PBS, 100 μl/well) and plates were incubated at room temperature for 2 additional hours. Subsequently, substrate was added to the washed plates (100 μl/well of a mixture of 10 ml 100 mM Tris pH 7.5 supplemented with 200 μl of 40 mg/ml DAB stock containing 50 μl of 80 mg/ml NiCl2 stock and 5 μl of 30% H2O2). The reaction was stopped after 20-30 minutes by washing the plates with tap water. Dried plates were evaluated with an ELISpot reader (BIOREADER 2000, BioSys, Karben, Germany).
(§3) As summarized in Table 3, some peptides were either immunogenic (+, less than 100 peptide-specific cells among a million splenocytes) or even strongly immunogenic (++, more than 100 peptide-specific cells among a million splenocytes) in DR4- and/or A*0201-transgenic mice.

Assay [2] has as its system HLA-B*0702 transgenic mice. Kind of assay: Vaccination of HLA-B*0702 transgenic mice (peptide + IC31), IFN-gamma ELISpot with spleen cells and CD8+ fraction. It is filed as in vivo, mouse. The settings on record: for Immunogenicity, peptide-specific IFN-gamma-producing cells, B*0702: HLA-B*0702 transgenic mice, splenocytes; for specific INF-γ producing T cells / HLA-B*0702 epitope in HLA-B*0702 transgenic mice (in words): peptide + IC31, whole spleen cells and CD8+ fraction. As for the experimental part:
as §2
Groups of 5 mice (HLA-A*0201-, HLA-DRB1*0401- and HLA-B*0702 transgenic mice, male, 8-14 weeks of age) were injected subcutaneous into the hind footpads with 100 μg of peptide +IC31 per mouse (50 μg per footpad). (PCT/EP01/12041, WO 02/32451 A1 and PCT/EP01/06433, WO 01/93905 A1; IC31 is a combination of the immunizer disclosed in WO 01/93905 and WO 02/32451).
6 days after vaccination single cell suspension of pooled spleens were prepared and additionally pure fractions of CD8+ in the case of A2 and B7 tg mice (CD8+ fraction for B7 mice containing 97% of CD8 and 1.5% of CD4 cells and for A2 tg mice 83% of CD8 and 8% of CD4 cells) and CD4+ for DR4tg mice (CD4+ fraction for DR4tg mice containing 98% of CD4 cells and 0.2% of CD8 cells) were separated from the spleen cell suspension using MACS separating kit (Miltenyi, Germany).

Assay [3] has as its system HLA-DRB1*0401 transgenic mice. Description: Immunization of HLA-DRB1*0401 transgenic mice (peptide + CpI), splenocyte IFN-gamma ELISpot. The format is in vivo, mouse. Particulars: for immunogenicity in HLA-DRB1*0401 transgenic mice (in words): Example II, IFN-gamma ELISpot of splenocytes; for Immunogenicity, peptide-specific IFN-gamma-producing cells, DRB1*0401: HLA-DRB1*0401 transgenic mice, splenocytes. As for the experimental part:
as §1, §2, §3

Assay [4] deals with HLA-DRB1*0101 (Homo sapiens, UniProt P01903+P01911, A100R/D57E/F55L/F60I/F76Y/I96L/L162R/M171V/P40L/Q125E/R42F/V115G/Y59C). Description: Epitope capture / peptide binding, SDS-stability assay, soluble DRB1*0101. Particulars: soluble HLA class II, individual peptide confirmed (Table 2).
Assay [5] has as its target HLA-DRB1*0404 (Homo sapiens, UniProt P01903+P01911, A100R/A169T/F76Y/I96L/K127E/L162R/M171V/N62H/P40V/Q125Y/R42H/S133A/S149N/S66Y/V209L/W38E). Description: Epitope capture / peptide binding, SDS-stability assay, soluble DRB1*0404. Particulars: soluble HLA class II, individual peptide confirmed (Table 2).

On to “GAAVGSIGLGKVLVDILAGYGAGISGALVAFKIMSGE [Peptide 1555]”, for which, in assay [1], the “immunogenicity in HLA-A*0201 transgenic mice (in words)” value is “immunogenicity” and the “Immunogenicity, peptide-specific IFN-gamma-producing cells, A*0201” value is “+ (immunogenic (+, less than 100 peptide-specific cells among a million splenocytes))”. Moreover, in assay [2], the “Immunogenicity, peptide-specific IFN-gamma-producing cells, B*0702” value (“Immunogenicity … B*0702” for short) is given as “+ (immunogenic (+, less than 100 peptide-specific cells among a million splenocytes))” and the “specific INF-γ producing T cells / HLA-B*0702 epitope in HLA-B*0702 transgenic mice (in words)” value was “HLA-B*0702 epitopes with T-cell activating capacity”. In addition, in assay [3], the “immunogenicity in HLA-DRB1*0401 transgenic mice (in words)” value is given as “immunogenicity” and the “Immunogenicity, peptide-specific IFN-gamma-producing cells, DRB1*0401” value was “+ (immunogenic (+, less than 100 peptide-specific cells among a million splenocytes))”.
With “VNLLPAILSPGALVVGVVCAAILRRHVGPGEGAVQWMNRLIAFASRGNHVSPTHYV [Peptide 1526]”, in assay [1], the “immunogenicity in HLA-A*0201 transgenic mice (in words)” value is given as “immunogenic” and the “Immunogenicity, peptide-specific IFN-gamma-producing cells, A*0201” value is “+ (immunogenic (+, less than 100 peptide-specific cells among a million splenocytes))”. In assay [2], the “Immunogenicity … B*0702” value was “+ (immunogenic (+, less than 100 peptide-specific cells among a million splenocytes))” and the “specific INF-γ producing T cells / HLA-B*0702 epitope in HLA-B*0702 transgenic mice (in words)” value is recorded as “HLA-B*0702 epitopes with T-cell activating capacity”. Moreover, in assay [3], the “immunogenicity in HLA-DRB1*0401 transgenic mice (in words)” value is on record as “immunogenic” and the “Immunogenicity, peptide-specific IFN-gamma-producing cells, DRB1*0401” value is “+ (immunogenic (+, less than 100 peptide-specific cells among a million splenocytes))”.
As to “YLHAPTGSGKSTKVPVAYAAQGYKVLVLNPSVAATLGFGAY [Peptide 1552]”, in assay [1], the “immunogenicity in HLA-A*0201 transgenic mice (in words)” value is “immunogenicity” and the “Immunogenicity, peptide-specific IFN-gamma-producing cells, A*0201” value is “+ (immunogenic (+, less than 100 peptide-specific cells among a million splenocytes))”. In assay [2], the “Immunogenicity … B*0702” value is given as “+ (immunogenic (+, less than 100 peptide-specific cells among a million splenocytes))” and the “specific INF-γ producing T cells / HLA-B*0702 epitope in HLA-B*0702 transgenic mice (in words)” value is recorded as “HLA-B*0702 epitopes with T-cell activating capacity”.
With PEYDLELITSCSSNVSVA [Peptide 1627], in assay [1], the “immunogenicity in HLA-A*0201 transgenic mice (in words)” value is reported as “immunogenicity” and the “Immunogenicity, peptide-specific IFN-gamma-producing cells, A*0201” value was “+ (immunogenic (+, less than 100 peptide-specific cells among a million splenocytes))”. For the same sequence, in assay [2], the “Immunogenicity … B*0702” value was “++ (strongly immunogenic (++, more than 100 peptide-specific cells among a million splenocytes))” and the “specific INF-γ producing T cells / HLA-B*0702 epitope in HLA-B*0702 transgenic mice (in words)” value is listed as “HLA-B*0702 epitopes with T-cell activating capacity”. Further, in assay [3], the “immunogenicity in HLA-DRB1*0401 transgenic mice (in words)” value is “immunogenic; also recorded: immunogenicity” and the “Immunogenicity, peptide-specific IFN-gamma-producing cells, DRB1*0401” value is recorded as “+ (immunogenic (+, less than 100 peptide-specific cells among a million splenocytes))”.
Turning to “GAAVGSICLGKVLVDILAGYGAGVAGALVAFKIMSGE [Peptide 1553]”, in assay [1], the “immunogenicity in HLA-A*0201 transgenic mice (in words)” value is “immunogenic” and the “Immunogenicity, peptide-specific IFN-gamma-producing cells, A*0201” value is “+ (immunogenic (+, less than 100 peptide-specific cells among a million splenocytes))”. In assay [2], the “Immunogenicity … B*0702” value is “+ (immunogenic (+, less than 100 peptide-specific cells among a million splenocytes))” and the “specific INF-γ producing T cells / HLA-B*0702 epitope in HLA-B*0702 transgenic mice (in words)” value is “HLA-B*0702 epitopes with T-cell activating capacity”.
In the case of “DPRHRSRNVGKVIDTLTCGFADLMGYIPVVGAPLGG [Peptide 1649]”, in assay [3], the “immunogenicity in HLA-DRB1*0401 transgenic mice (in words)” value is given as “immunogenicity” and the “Immunogenicity, peptide-specific IFN-gamma-producing cells, DRB1*0401” value is “+ (immunogenic (+, less than 100 peptide-specific cells among a million splenocytes))”.
Take LTPPHSAKSKYGYGAKEVR [Peptide 1616]: in assay [3], the “immunogenicity in HLA-DRB1*0401 transgenic mice (in words)” value is “immunogenicity” and the “Immunogenicity, peptide-specific IFN-gamma-producing cells, DRB1*0401” value is listed as “+ (immunogenic (+, less than 100 peptide-specific cells among a million splenocytes))”.
With “VNLLPGILSPGALVVGVICAAILRRHVGPGEGAVQWMNRLIAFASRGNHVAPTHYV [Peptide 1587]”, in assay [1], the “immunogenicity in HLA-A*0201 transgenic mice (in words)” value is recorded as “immunogenic” and the “Immunogenicity, peptide-specific IFN-gamma-producing cells, A*0201” value is on record as “+ (immunogenic (+, less than 100 peptide-specific cells among a million splenocytes))”. Further, in assay [2], the “Immunogenicity … B*0702” value was “+ (immunogenic (+, less than 100 peptide-specific cells among a million splenocytes))” and the “specific INF-γ producing T cells / HLA-B*0702 epitope in HLA-B*0702 transgenic mice (in words)” value is reported as “confirmed to contain human HLA-B*0702 epitopes; also recorded: HLA-B*0702 epitopes with T-cell activating capacity”.
Regarding SGHRMAWDMMMNWSPT [Peptide 1631], the “Binding to DRB1 *0101” value in assay [4] is recorded as “nb (no binding)”. Also, in assay [1], the “immunogenicity in HLA-A*0201 transgenic mice (in words)” value is on record as “immunogenicity” and the “Immunogenicity, peptide-specific IFN-gamma-producing cells, A*0201” value was “+ (immunogenic (+, less than 100 peptide-specific cells among a million splenocytes))”. In assay [3], the “immunogenicity in HLA-DRB1*0401 transgenic mice (in words)” value is “immunogenic” and the “Immunogenicity, peptide-specific IFN-gamma-producing cells, DRB1*0401” value is reported as “+ (immunogenic (+, less than 100 peptide-specific cells among a million splenocytes))”.
With LEDRDRSQLSPLLHSTTEW [Peptide 1625], in assay [3], the “immunogenicity in HLA-DRB1*0401 transgenic mice (in words)” value is listed as “immunogenicity” and the “Immunogenicity, peptide-specific IFN-gamma-producing cells, DRB1*0401” value was “+ (immunogenic (+, less than 100 peptide-specific cells among a million splenocytes))”.
Regarding LLFLLLADARVCACLWM [Peptide 1630], the “Binding to DRB1 *0101” value in assay [4] is recorded as “* (weak binding)”. In addition, in assay [1], the “immunogenicity in HLA-A*0201 transgenic mice (in words)” value is “immunogenic” and the “Immunogenicity, peptide-specific IFN-gamma-producing cells, A*0201” value is reported as “++ (strongly immunogenic (++, more than 100 peptide-specific cells among a million splenocytes))”. Also, in assay [3], the “immunogenicity in HLA-DRB1*0401 transgenic mice (in words)” value was “immunogenic; also recorded: immunogenicity” and the “Immunogenicity, peptide-specific IFN-gamma-producing cells, DRB1*0401” value is given as “++ (strongly immunogenic (++, more than 100 peptide-specific cells among a million splenocytes))”. For the same sequence, the “Binding to DRB1 *0404” value in assay [5] was “nb (no binding)”.
As to “ARALAHGVRVLEDGVNYATGNLPGCSFSIFLLALLSC [Peptide 1647]”, in assay [1], the “immunogenicity in HLA-A*0201 transgenic mice (in words)” value is “immunogenicity” and the “Immunogenicity, peptide-specific IFN-gamma-producing cells, A*0201” value is reported as “+ (immunogenic (+, less than 100 peptide-specific cells among a million splenocytes))”. Moreover, in assay [2], the “Immunogenicity … B*0702” value is recorded as “+ (immunogenic (+, less than 100 peptide-specific cells among a million splenocytes))” and the “specific INF-γ producing T cells / HLA-B*0702 epitope in HLA-B*0702 transgenic mice (in words)” value is on record as “HLA-B*0702 epitopes with T-cell activating capacity”.
For “SGMFDSVVLCECYDAGAAWYELTPAETTVRLRAY [Peptide 1563]”, in assay [2], the “Immunogenicity … B*0702” value is recorded as “+ (immunogenic (+, less than 100 peptide-specific cells among a million splenocytes))” and the “specific INF-γ producing T cells / HLA-B*0702 epitope in HLA-B*0702 transgenic mice (in words)” value was “HLA-B*0702 epitopes with T-cell activating capacity”. Further, in assay [3], the “immunogenicity in HLA-DRB1*0401 transgenic mice (in words)” value is reported as “immunogenicity” and the “Immunogenicity, peptide-specific IFN-gamma-producing cells, DRB1*0401” value is “+ (immunogenic (+, less than 100 peptide-specific cells among a million splenocytes))”.
Take LPALSTGLIHLHQNIVDVQYLYG [Peptide 1656]: in assay [3], the “immunogenicity in HLA-DRB1*0401 transgenic mice (in words)” value was “immunogenicity” and the “Immunogenicity, peptide-specific IFN-gamma-producing cells, DRB1*0401” value is “+ (immunogenic (+, less than 100 peptide-specific cells among a million splenocytes))”.
